Assay results reported in patent US11331299B2, “Medicinal use of serrulatane diterpenes” (The University of Sydney, priority 2016, dated 2022).
Read-outs that look alike come from different tables or passages of the source.

Columns and labels:
ATAD2B (h) bromodomain = biological target: T1, ATAD2B (h) bromodomain (Homo sapiens, UniProt Q9ULI0); assay: Epigenetic binding assay, Bromodomain; conditions: 10 μM; read-out: % Inhibition of Control Specific Binding
T1 construct: ATAD2B bromodomain; host or cells: E. coli
T1 sequence (Q9ULI0 951-1066 limits assumed): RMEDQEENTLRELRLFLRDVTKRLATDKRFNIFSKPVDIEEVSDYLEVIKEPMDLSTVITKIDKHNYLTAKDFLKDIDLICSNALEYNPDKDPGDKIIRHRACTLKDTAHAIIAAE

BRPF1-1 (h) bromodomain = biological target: T2, BRPF1-1 (h) bromodomain (Homo sapiens, UniProt P55201); assay: Epigenetic binding assay, Bromodomain; conditions: 10 μM; read-out: % Inhibition of Control Specific Binding
T2 construct: Bromodomain
T2 sequence (P55201 628-732 limits assumed): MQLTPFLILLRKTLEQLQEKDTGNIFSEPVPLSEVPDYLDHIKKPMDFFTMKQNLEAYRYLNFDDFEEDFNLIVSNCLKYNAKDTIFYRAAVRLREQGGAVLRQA

EP300 (h) bromodomain = biological target: T3, EP300 (h) bromodomain (Homo sapiens, UniProt Q09472); assay: Epigenetic binding assay, Bromodomain; conditions: for inhibition at 10 µM: read-out: % Inhibition of Control Specific Binding
T3 construct: Bromodomain
T3 sequence (Q09472 1049-1156 limits assumed): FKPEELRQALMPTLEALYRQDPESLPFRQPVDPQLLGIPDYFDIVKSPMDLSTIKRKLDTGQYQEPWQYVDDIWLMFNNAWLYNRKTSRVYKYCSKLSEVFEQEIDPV

BRD3(1) (h) bromodomain = biological target: T4, BRD3(1) (h) bromodomain (Homo sapiens, UniProt Q15059); assay: Epigenetic binding assay, Bromodomain; conditions: read-out: % Inhibition of Control Specific Binding
T4 construct: Bromodomain
T4 sequence (Q15059 34-140 limits assumed): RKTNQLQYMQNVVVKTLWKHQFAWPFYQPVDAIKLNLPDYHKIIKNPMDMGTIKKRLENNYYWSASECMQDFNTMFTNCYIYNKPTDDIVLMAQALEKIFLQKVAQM

CBX8 (h) chromodomain = biological target: T5, CBX8 (h) chromodomain (Homo sapiens, UniProt Q9HC52); assay: Epigenetic binding assay, Chromodomain; conditions: read-out: % Inhibition of Control Specific Binding
T5 construct: Recognition and specificity determinants of the human cbx chromodomains; Eurofins CEREP (France), contract laboratory
T5 sequence (Q9HC52 11-69 limits assumed): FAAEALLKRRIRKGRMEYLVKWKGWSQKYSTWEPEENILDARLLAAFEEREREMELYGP

H3K4 me2 = assay: Cell-based detection methyl modifications; conditions: read-out: % Inhibition of Control Values
DNMT1 (h) = DNMT1 (h) (Homo sapiens, UniProt P26358); assay: Epigenetic enzyme assay, DNA methyltransferases (DNMTs); format: biochemical; conditions: read-out: % Inhibition of Control Values
DNMT1 (h), sequence (P26358 whole entry): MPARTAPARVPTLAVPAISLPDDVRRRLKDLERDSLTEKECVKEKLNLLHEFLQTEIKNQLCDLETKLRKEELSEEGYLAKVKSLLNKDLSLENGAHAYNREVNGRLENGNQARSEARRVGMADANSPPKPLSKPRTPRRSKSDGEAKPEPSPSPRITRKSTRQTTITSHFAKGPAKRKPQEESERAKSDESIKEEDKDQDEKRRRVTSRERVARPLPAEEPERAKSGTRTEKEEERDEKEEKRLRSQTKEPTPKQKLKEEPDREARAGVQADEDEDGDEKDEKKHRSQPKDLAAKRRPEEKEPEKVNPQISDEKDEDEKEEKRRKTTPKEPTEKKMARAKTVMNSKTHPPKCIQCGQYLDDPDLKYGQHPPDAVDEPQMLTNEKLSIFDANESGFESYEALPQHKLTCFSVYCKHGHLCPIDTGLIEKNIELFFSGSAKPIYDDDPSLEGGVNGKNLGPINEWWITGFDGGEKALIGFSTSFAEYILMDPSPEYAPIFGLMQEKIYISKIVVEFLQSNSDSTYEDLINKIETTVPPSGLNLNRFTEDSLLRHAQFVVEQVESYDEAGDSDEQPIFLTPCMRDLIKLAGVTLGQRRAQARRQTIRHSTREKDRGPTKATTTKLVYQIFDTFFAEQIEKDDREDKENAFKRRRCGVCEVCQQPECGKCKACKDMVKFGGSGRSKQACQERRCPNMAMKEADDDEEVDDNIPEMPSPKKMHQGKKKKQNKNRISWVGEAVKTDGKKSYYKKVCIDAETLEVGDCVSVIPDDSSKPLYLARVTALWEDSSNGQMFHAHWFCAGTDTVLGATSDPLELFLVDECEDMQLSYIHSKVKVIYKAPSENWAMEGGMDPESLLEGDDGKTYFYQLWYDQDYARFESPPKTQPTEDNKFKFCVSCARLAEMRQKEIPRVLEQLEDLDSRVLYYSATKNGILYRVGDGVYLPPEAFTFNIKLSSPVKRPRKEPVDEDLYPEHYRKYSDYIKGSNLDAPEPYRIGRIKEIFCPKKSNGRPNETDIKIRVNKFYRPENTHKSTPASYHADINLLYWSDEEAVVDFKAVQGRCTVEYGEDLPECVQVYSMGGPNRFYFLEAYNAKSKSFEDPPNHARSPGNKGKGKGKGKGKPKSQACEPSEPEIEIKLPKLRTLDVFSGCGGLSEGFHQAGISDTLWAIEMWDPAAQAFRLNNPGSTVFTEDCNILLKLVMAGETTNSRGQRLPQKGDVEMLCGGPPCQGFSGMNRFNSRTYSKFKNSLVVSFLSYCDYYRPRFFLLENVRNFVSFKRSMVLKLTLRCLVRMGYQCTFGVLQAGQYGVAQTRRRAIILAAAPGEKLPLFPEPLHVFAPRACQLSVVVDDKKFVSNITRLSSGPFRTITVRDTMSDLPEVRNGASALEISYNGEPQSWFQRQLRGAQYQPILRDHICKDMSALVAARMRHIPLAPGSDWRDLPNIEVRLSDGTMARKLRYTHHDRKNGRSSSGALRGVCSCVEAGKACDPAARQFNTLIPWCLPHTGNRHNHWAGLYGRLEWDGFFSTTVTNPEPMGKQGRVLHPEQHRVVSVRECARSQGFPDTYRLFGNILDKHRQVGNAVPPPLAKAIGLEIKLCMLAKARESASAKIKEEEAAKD

DNMT3B/DNMT3L (h) = DNMT3B/DNMT3L (h) (Homo sapiens, UniProt Q9UBC3); assay: as above; format: biochemical; conditions: 10 μM; read-out: % Inhibition of Control Values
[1] = biological target: T6, sirtuin 1 (h) (inhibitor effect) (Homo sapiens, UniProt Q96EB6); assay: Epigenetic enzyme assay, Sirtuins; format: biochemical; conditions: read-out: % Inhibition of Control Values
T6 sequence (Q96EB6 1-747): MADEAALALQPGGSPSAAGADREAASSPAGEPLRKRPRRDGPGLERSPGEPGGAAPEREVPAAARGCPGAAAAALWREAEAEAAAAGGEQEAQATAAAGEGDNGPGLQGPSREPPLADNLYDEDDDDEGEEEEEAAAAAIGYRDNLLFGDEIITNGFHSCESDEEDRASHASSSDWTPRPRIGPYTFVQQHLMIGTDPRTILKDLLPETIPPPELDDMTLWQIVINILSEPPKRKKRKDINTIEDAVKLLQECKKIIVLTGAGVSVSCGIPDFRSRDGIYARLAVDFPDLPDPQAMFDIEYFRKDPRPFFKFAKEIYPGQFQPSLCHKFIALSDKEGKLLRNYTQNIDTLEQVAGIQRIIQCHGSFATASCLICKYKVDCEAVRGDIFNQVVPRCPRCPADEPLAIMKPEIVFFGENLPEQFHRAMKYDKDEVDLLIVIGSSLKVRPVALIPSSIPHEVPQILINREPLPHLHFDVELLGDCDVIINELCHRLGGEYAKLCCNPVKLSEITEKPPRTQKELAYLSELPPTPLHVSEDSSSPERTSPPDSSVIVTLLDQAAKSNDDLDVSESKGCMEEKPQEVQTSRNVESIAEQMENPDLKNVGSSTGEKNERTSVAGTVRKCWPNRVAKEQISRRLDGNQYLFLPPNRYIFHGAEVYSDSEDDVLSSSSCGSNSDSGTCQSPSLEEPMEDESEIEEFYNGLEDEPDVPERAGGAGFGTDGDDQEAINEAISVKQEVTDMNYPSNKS

MLL3(h) complex = MLL3(h) complex (Homo sapiens, UniProt Q8NEZ4); assay: Epigenetic enzyme assay, Methyltransferases (MTs); format: biochemical; conditions: 10 μM; read-out: % Inhibition of Control Values
MLL4(h) complex = assay: Epigenetic enzyme assay, Methyltransferases (MTs); format: biochemical, human; conditions: 10 μM
[2] = biological target: PKBgamma/AKT3(h) (substrate histone H3 full length) (Homo sapiens, UniProt Q9Y243); assay: Epigenetic enzyme assay, Kinases; format: biochemical; conditions: read-out: % Inhibition of Control Values
PKBgamma/AKT3(h) (substrate histone H3 full length), sequence (Q9Y243 whole entry): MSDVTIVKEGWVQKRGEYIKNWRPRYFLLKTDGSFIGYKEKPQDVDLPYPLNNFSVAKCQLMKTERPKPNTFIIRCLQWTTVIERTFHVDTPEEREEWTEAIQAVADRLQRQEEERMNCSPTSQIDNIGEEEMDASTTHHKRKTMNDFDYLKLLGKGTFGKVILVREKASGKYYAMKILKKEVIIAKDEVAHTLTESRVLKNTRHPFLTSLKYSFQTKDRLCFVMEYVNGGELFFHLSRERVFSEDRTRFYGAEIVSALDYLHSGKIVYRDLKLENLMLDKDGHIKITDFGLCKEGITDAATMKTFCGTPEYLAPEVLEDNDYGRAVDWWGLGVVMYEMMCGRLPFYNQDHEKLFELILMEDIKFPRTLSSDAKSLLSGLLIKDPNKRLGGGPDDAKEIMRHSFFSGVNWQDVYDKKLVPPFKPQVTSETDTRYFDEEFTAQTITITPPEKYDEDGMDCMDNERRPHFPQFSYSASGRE

[3] = biological target: Rsk2(h) (substrate histone H3 full length) (Homo sapiens, UniProt P51812); assay: Epigenetic enzyme assay, Kinases; format: biochemical; conditions: read-out: % Inhibition of Control Values
Rsk2(h) (substrate histone H3 full length), sequence (P51812 whole entry): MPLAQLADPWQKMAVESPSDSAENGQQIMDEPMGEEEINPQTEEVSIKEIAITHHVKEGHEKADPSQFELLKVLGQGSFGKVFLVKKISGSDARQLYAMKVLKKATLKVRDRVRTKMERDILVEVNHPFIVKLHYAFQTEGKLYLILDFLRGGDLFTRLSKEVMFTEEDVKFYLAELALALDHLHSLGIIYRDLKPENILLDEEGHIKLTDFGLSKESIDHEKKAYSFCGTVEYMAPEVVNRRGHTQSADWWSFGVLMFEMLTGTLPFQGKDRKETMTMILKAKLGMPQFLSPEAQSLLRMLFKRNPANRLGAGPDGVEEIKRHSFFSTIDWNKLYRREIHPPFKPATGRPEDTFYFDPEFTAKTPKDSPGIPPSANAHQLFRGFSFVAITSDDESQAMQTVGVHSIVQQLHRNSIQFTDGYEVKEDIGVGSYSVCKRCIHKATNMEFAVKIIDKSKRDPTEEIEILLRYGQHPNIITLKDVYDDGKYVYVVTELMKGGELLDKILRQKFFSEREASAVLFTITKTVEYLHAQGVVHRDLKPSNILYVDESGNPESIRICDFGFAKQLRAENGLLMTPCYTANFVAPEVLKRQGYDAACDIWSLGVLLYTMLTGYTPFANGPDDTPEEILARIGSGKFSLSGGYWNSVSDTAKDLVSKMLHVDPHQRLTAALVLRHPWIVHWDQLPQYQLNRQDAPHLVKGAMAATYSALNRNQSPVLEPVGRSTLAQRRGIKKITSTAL

[4] = tested on: 43 cancer cell lines and one normal cell line; assay: In vitro cell viability assay (intracellular ATP, 72 hour); format: cell-based; conditions: 10 μM
J-RT3-T3-5 leukemia = assay: OncoPanel cell proliferation assay (10-day); format: cell-based, human; conditions: Homo sapiens; for EC50: read-out: Cell Count EC50; for IC50: read-out: Cell Count IC50
[5] = LL/2 (Non-Small Cell Lung Cancer)
[6] = NCI-H460 (Non-Small Cell Lung Cancer)
[7] = PC-6 (Non-Small Cell Lung Cancer)
[8] = J-RT3-T3-5, Leukemia, read-out: Cell Count GI50

Structure (SMILES): CC(C)=CCC[C@H](CO)[C@@H]1CC[C@@H](C)c2c1cc(C)c(O)c2O [Compound 1, 7,8,18-trihydroxyserrulat-14-ene]
- inhibition at 10 µM (ATAD2B (h) bromodomain): 52%
- inhibition at 10 µM (BRPF1-1 (h) bromodomain): -25%
- % Inhibition of Control Specific Binding (EP300 (h) bromodomain; 10 μM): significant inhibitory activity
- inhibition at 10 µM (EP300 (h) bromodomain; 10 μM): 89%
- IC50 (EP300 (h) bromodomain; Table 9, inhibition/concentration-response curve): 4500 nM
- inhibition at 10 µM (BRD3(1) (h) bromodomain): 47%
- inhibition at 10 µM (CBX8 (h) chromodomain): 27%
- inhibition at 10 µM (H3K4 me2): -5%
- inhibition at 10 µM (DNMT1 (h)): 10%
- inhibition at 10 µM (DNMT3B/DNMT3L (h)): 23%
- inhibition at 10 µM [1]: 2%
- inhibition at 10 µM (MLL3(h) complex): -22%
- % Inhibition of Control Values (MLL4(h) complex): −16%
- inhibition at 10 µM [2]: 5%
- inhibition at 10 µM [3]: 5%
- reduction in cell viability ([4]; 12 cancer cell lines with moderate reduction): −40 to −80%
- reduction in cell viability ([4]; cancer cell lines with potent reduction): −80 to −100%
- % Cell growth ([4]; 4T1 (Breast Cancer)): 52%
- % Cell growth ([4]; A375 (Skin)): −5%
- % Cell growth ([4]; A549/ATCC (Non-Small Cell Lung Cancer)): −92%
- % Cell growth ([4]; A-431 (Skin)): −89%
- % Cell growth ([4]; A-498 (Kidney Cancer)): −43%
- % Cell growth ([4]; ACHN (Kidney Cancer)): −41%
- % Cell growth ([4]; B16-F0 (Melanoma)): 7%
- % Cell growth ([4]; BT474 (Breast Cancer)): −67%
- % Cell growth ([4]; CT26.WT (Colon Cancer)): 2%
- % Cell growth ([4]; DLD-1 (Colon Cancer)): −65%
- % Cell growth ([4]; H33HJ-JA1 (Lymphoma)): −90%
- % Cell growth ([4]; HC-4 (Liver Cancer)): −91%
- % Cell growth ([4]; HCT-15 (Colon Cancer)): −62%
- % Cell growth ([4]; HCT-116 (Colon Cancer)): −74%
- % Cell growth ([4]; HT-29 (Colon Cancer)): −66%
- % Cell growth ([4]; Hep3B (Liver Cancer)): −84%
- % Cell growth ([4]; HepG2 (Liver Cancer)): −23%
- % Cell growth ([4]; K-562 (Leukemia)): −55%
- % Cell growth ([4]; KATO III (Stomach)): −91%
- % Cell growth [4, 5]: −62%
- % Cell growth ([4]; LNCaP (Prostrate Cancer)): −86%
- % Cell growth ([4]; MCF7 (Breast Cancer)): −71%
- % Cell growth ([4]; MCF-7 AdrR (Breast Cancer)): −90%
- % Cell growth ([4]; MDA-MB-231 (Breast Cancer)): −92%
- % Cell growth ([4]; MDA-MB-468 (Breast Cancer)): −92%
- % Cell growth ([4]; MES-SA (Uterus)): −88%
- % Cell growth ([4]; MIA PaCa-2 (Pancreas)): 3%
- % Cell growth ([4]; MOLT-4 (Leukemia)): −94%
- % Cell growth ([4]; MV-411 (Leukemia)): −96%
- % Cell growth [4, 6]: −37%
- % Cell growth ([4]; OVCAR-3 (Ovarian Cancer)): −93%
- % Cell growth ([4]; PANC-1 (Pancreas)): 36%
- % Cell growth ([4]; PC-3 (Prostrate Cancer)): 70%
- % Cell growth [4, 7]: −62%
- % Cell growth ([4]; Ramos (Lymphoma)): −92%
- % Cell growth ([4]; SK-MEL-5 (Melanoma)): −96%
- % Cell growth ([4]; SK-N-MC (Brain)): −87%
- % Cell growth ([4]; SK-OV-3 (Ovarian Cancer)): −35%
- % Cell growth ([4]; SW-620 (Colon Cancer)): −89%
- % Cell growth ([4]; T-47D (Breast Cancer)): 20%
- % Cell growth ([4]; U937 (Lymphoma)): −86%
- % Cell growth ([4]; U-87 MG (Brain)): 7%
- GI50 (J-RT3-T3-5 leukemia; J-RT3-T3-5, read-out: GI50): 10.1 nM
- EC50 (J-RT3-T3-5 leukemia; J-RT3-T3-5, Leukemia): 10 nM
- GI50 (J-RT3-T3-5 leukemia; [8]): 10 nM
- IC50 (J-RT3-T3-5 leukemia; J-RT3-T3-5, Leukemia): 10 nM

Structure (SMILES): CC(C)=CCC[C@@H]1C(O)Oc2c(C)cc(O)c3c2[C@H]1CC[C@H]3C (stereo partly shown) [Compound 2, 5,18-epoxyserrulat-14-en-8,18-diol]
- inhibition at 10 µM (ATAD2B (h) bromodomain): 25%
- inhibition at 10 µM (BRPF1-1 (h) bromodomain): -25%
- inhibition at 10 µM (EP300 (h) bromodomain; 10 μM): 37%
- inhibition at 10 µM (BRD3(1) (h) bromodomain): 17%
- inhibition at 10 µM (CBX8 (h) chromodomain): 31%
- inhibition at 10 µM (H3K4 me2): -1%
- inhibition at 10 µM (DNMT1 (h)): 4%
- inhibition at 10 µM (DNMT3B/DNMT3L (h)): 27%
- inhibition at 10 µM [1]: -3%
- inhibition at 10 µM (MLL3(h) complex): -21%
- % Inhibition of Control Values (MLL4(h) complex): −18%
- inhibition at 10 µM [2]: -7%
- inhibition at 10 µM [3]: 7%
- effect on cell viability ([4]; remaining cell lines (other than HL-60)): no significant effect
- % Cell growth ([4]; 4T1 (Breast Cancer)): 60%
- % Cell growth ([4]; A375 (Skin)): 74%
- % Cell growth ([4]; A-431 (Skin)): 100%
- % Cell growth ([4]; A-498 (Kidney Cancer)): 91%
- % Cell growth ([4]; ACHN (Kidney Cancer)): 101%
- % Cell growth ([4]; B16-F0 (Melanoma)): 123%
- % Cell growth ([4]; BT474 (Breast Cancer)): 118%
- % Cell growth ([4]; CT26.WT (Colon Cancer)): 120%
- % Cell growth ([4]; DLD-1 (Colon Cancer)): 95%
- % Cell growth ([4]; H33HJ-JA1 (Lymphoma)): 57%
- % Cell growth ([4]; HC-4 (Liver Cancer)): 104%
- % Cell growth ([4]; HCT-15 (Colon Cancer)): 94%
- % Cell growth ([4]; HCT-116 (Colon Cancer)): 81%
- % Cell growth ([4]; HT-29 (Colon Cancer)): 107%
- % Cell growth ([4]; Hep3B (Liver Cancer)): 87%
- % Cell growth ([4]; HepG2 (Liver Cancer)): 95%
- % Cell growth ([4]; K-562 (Leukemia)): 69%
- % Cell growth ([4]; KATO III (Stomach)): 84%
- % Cell growth [4, 5]: 105%
- % Cell growth ([4]; LNCaP (Prostrate Cancer)): 73%
- % Cell growth ([4]; MCF7 (Breast Cancer)): 114%
- % Cell growth ([4]; MCF-7 AdrR (Breast Cancer)): 92%
- % Cell growth ([4]; MDA-MB-231 (Breast Cancer)): 97%
- % Cell growth ([4]; MDA-MB-468 (Breast Cancer)): 37%
- % Cell growth ([4]; MES-SA (Uterus)): 75%
- % Cell growth ([4]; MIA PaCa-2 (Pancreas)): 92%
- % Cell growth ([4]; MOLT-4 (Leukemia)): 38%
- % Cell growth ([4]; MV-411 (Leukemia)): 37%
- % Cell growth [4, 6]: 88%
- % Cell growth ([4]; OVCAR-3 (Ovarian Cancer)): 67%
- % Cell growth ([4]; PANC-1 (Pancreas)): 87%
- % Cell growth ([4]; PC-3 (Prostrate Cancer)): 99%
- % Cell growth [4, 7]: 92%
- % Cell growth ([4]; Ramos (Lymphoma)): 33%
- % Cell growth ([4]; SK-MEL-5 (Melanoma)): 95%
- % Cell growth ([4]; SK-N-MC (Brain)): 73%
- % Cell growth ([4]; SK-OV-3 (Ovarian Cancer)): 82%
- % Cell growth ([4]; SW-620 (Colon Cancer)): 97%
- % Cell growth ([4]; T-47D (Breast Cancer)): 104%
- % Cell growth ([4]; U937 (Lymphoma)): 102%
- % Cell growth ([4]; U-87 MG (Brain)): 101%
- EC50 (J-RT3-T3-5 leukemia; J-RT3-T3-5, Leukemia): 2080 nM
- GI50 (J-RT3-T3-5 leukemia; [8]): 2060 nM
- IC50 (J-RT3-T3-5 leukemia; J-RT3-T3-5, Leukemia): 2080 nM
